Experimental data published in patent US7094868B2, “Peptides for recognition and targeting of GLIAL cell tumors” (Auburn University, priority 2002, dated 2006).

Assays:
CTX TNA2 astrocytes = test: Evaluation of binding selectivity: phage output/input titer on normal astrocytes; type: cell-based, rat; conditions: for binding selectivity, RG2 glioma versus normal astrocytes: cell-attached phage recovered by elution, FIGS. 7, 10
Procedure: (§1) All analyses were performed in triplicate.

F98 glioma cells = test: Evaluation of binding selectivity: phage output/input titer on F98 glioma; type: cell-based, rat; conditions: eluted phage
Procedure: as §1

RG2 glioma cells [1] = test: Evaluation of binding selectivity: phage output/input titer, RG2 glioma versus control cell lines overall; type: cell-based, rat
Procedure: as §1

[2] = tested on: human glioma cell lines SW1088, M059K, A172, and HS 683; test: Phage clone binding to human glioma cell lines; type: cell-based; conditions: A172, HS 683
Procedure: The ELRGDSLP phage clone was tested further for binding to four different human glioma cell lines: SW1088, M059K, A172, and HS 683, all obtained from the ATCC.

αv, β3, and β1 integrins = test: Affinity precipitation of RG2 cell membrane proteins with cross-linked phage, Western blot with anti-integrin antibodies; type: binding, rat
Procedure: Experiments were performed to isolate and purify the RG2-cell-specific protein that was responsible for binding of the ELRGDSLP phage clone to glioma cells. The basic approach was to perform precipitation of RG2 cell membrane proteins by using the phage clone to form an affinity matrix.
To prepare the RG2 cell membrane proteins, RG2 glioma cells were grown in 25 cm^2 tissue culture flasks. The growing medium was removed from the flasks and cells were collected in PBS buffer containing protease inhibitors. Cells were then pelleted by centrifugation and lysed with octylglucoside buffer (10 mM Tris-HCl, pH 7.5, 140 mM NaCl, 10 mM octylglucoside (Sigma), and protease inhibitor cocktail (Sigma); 5 ml per flask). The cell lysate was clarified by centrifugation and the supernatant containing cell membrane proteins was then used for isolation of glioma-specific receptor proteins.
Cross-linked phage were prepared by the method of Smith et al. (1998) (J. Immunol. Methods 215: 151–161) using a water-soluble, multifunctional dextran polymer. After that, ELRGDSLP cross-linked phage were incubated with the clarified lysate of RG2 cells. Following incubation, the crosslinked phage-receptor protein complexes were pelleted by centrifugation at 10,000 rpm for 15 minutes. Phage particles that were not cross-linked remained in the buffer and were discarded. […]

RG2 glioma cells [3] = test: Quantitation of binding specificity: phage output/input titer on RG2 glioma cells; type: cell-based, rat; conditions: cell-surface-bound phage eluted with low pH buffer; 10^9 cfu/flask, 1 hour, room temperature; FIG. 3
Procedure: as §1

[4] = tested on: BRL 3A hepatocytes, H9c2(2-1) cardiac myoblasts, 27FR fibroblasts; conditions: cell-attached phage recovered by elution; FIGS. 4, 7, 10
Procedure: In order to evaluate the binding specificity conferred by the peptides, various phage clones were incubated with RG2 glioma cells. Two control phage were compared to the RG2 affinity-selected candidate phage clones (see FIG. 3). […] For the quantitation assay, RG2 cells were grown in 25 cm^2 flasks for approximately 48 hours to sub-confluence. One hour prior to application of phage, the normal media was replaced with serum-free media and incubation was continued. Each phage clone (10^9 cfu/flask) was added to a flask of cells in 2 ml of washing/blocking buffer and incubated for 1 hour at room temperature. Following incubation, unbound phage were removed by washing the cells remaining in the flasks 8 times with 4 ml of cold washing/blocking buffer for 5 minutes per wash. Cell surface-bound phage were recovered by incubation with 1 ml of elution buffer for 10 minutes on ice. The eluate was removed from flasks and neutralized with 1 M Tris. Cells were washed again two times with washing/blocking buffer and lysed by incubation with 1 ml lysis buffer for 30 min at room temperature; the lysate was processed as above. Phage titers were determined by infection of bacteria and are presented in FIG. 3 as a ratio of output to input phage. All analyses were performed in triplicate. […]

DLTKSTAP [phage clone displaying the synthetic peptide on major coat protein pVIII]
binding selectivity, RG2 glioma versus normal astrocytes (CTX TNA2 astrocytes): approximately 14 fold

DSTKSGNM [phage clone displaying the synthetic peptide on major coat protein pVIII]
binding to F98 glioma compared to RG2 glioma (in words) (F98 glioma cells; FIG. 7): even better binding
binding selectivity, RG2 glioma versus normal astrocytes (CTX TNA2 astrocytes): 25 fold

DYDMTKNT [phage clone displaying the synthetic peptide on major coat protein pVIII]
binding selectivity for glioma cells compared to control cells (in words) (RG2 glioma cells [1]; RG2 and F98 glioma, astrocytes, myoblasts, hepatocytes, fibroblasts): very selective binding

ELRGDSLP [phage clone displaying the synthetic peptide on major coat protein pVIII]
output/input phage ratio compared between ELRGDSLP and ESRGDSYA phage clones (RG2 glioma cells [1]; lysis, FIGS. 5 and 11): significantly lower
binding to human glioma cell lines (in words) [2]: pronounced glioma-specific binding properties
signal with anti-integrin antibodies in phage-purified protein eluate (αv, β3, and β1 integrins): did not produce any positive signal

VDLPQHGQ [phage clone displaying the synthetic peptide on major coat protein pVIII]
ratio of output to input phage (apparent binding affinity) on RG2 glioma cells (RG2 glioma cells [3]): highest

VGLPEHTQ [phage clone displaying the synthetic peptide on major coat protein pVIII]
binding selectivity, RG2 glioma versus hepatocytes, myoblasts and fibroblasts [4]: approximately 5 fold
ratio of output to input phage (apparent binding affinity) on RG2 glioma cells (RG2 glioma cells [3]): highest
binding to F98 glioma as % of RG2-binding level (F98 glioma cells; FIG. 4): 41%
binding to normal astrocytes as % of RG2-binding level (CTX TNA2 astrocytes; eluted phage, FIG. 4): 64%
